In PMC8634379, “From the Design to the In Vivo Evaluation of Benzohomoadamantane-Derived Soluble Epoxide Hydrolase Inhibitors for the Treatment of Acute Pancreatitis” (Journal of Medicinal Chemistry, 2021):

Experiments:
Microsomal stability [1] = type: in vitro ADME, human; conditions: after 60 min incubation, NADP, 37 °C
Experimental: (§1) The human, rat, and mice recombinant microsomes employed were purchased from Tebu–Xenotech. […] Samples (75 μL) were taken from each well at 0, 10, 20, 40, and 60 min and transferred to a plate containing 4 °C 75 μL of acetonitrile and 30 μL of 0.5% formic acid in water were added for improving the chromatographic conditions. The plate was centrifuged ([…], 30 min) and supernatants were taken and analyzed by an ultraperformance liquid chromatograph–tandem mass spectrometer (Xevo-TQD, Waters) by employing a BEH C18 column and an isocratic gradient of 0.1% formic acid in water: 0.1% formic acid acetonitrile (60:40). The metabolic stability of the compounds was calculated from the logarithm of the remaining compounds at each of the time points studied.

Microsomal stability [2] = conditions: after 60 min incubation, NADP, 37 °C
Experimental: as §1

Caco-2 cell permeability = type: in vitro ADME; conditions: human; for Papp A→B at 2 h, 10 µM / Papp B→A at 2 h, 10 µM: 37 °C; for efflux ratio at 2 h, 10 µM: ER = (Papp B→A)/(Papp A→B)
Experimental: The Caco-2 cells were cultured to confluency, trypsinized, and seeded onto a 96-filter transwell insert (Corning) at a density of ∼10,000 cells/well in DMEM cell culture medium supplemented with 10% fetal bovine serum, 2 mM L-glutamine, and 1% penicillin/streptomycin. Confluent Caco-2 cells were subcultured at passages 58–62 and grown in a humidified atmosphere of 5% CO2 at 37 °C. […] The cell monolayers were used for transport studies 21 days post seeding. […] Stock solutions were made in dimethyl sulfoxide (DMSO) and further diluted in HBSS (final DMSO concentration 1%). Each compound and reference compounds (Colchicine, E3S) were all tested at a final concentration of 10 μM. For A → B directional transport, the donor working solution was added to the apical (A) compartment and the transport media as receiver working solution was added to the basolateral (B) compartment. For B → A directional transport, the donor working was added to the basolateral (B) compartment and transport media as receiver working solution was added to the apical (A) compartment. The cells were incubated at 37 °C for 2 h with gentle stirring.
At the end of the incubation, samples were taken from both donor and receiver compartments and transferred into 384-well plates and analyzed by ultraperformance liquid chromatography–tandem mass spectrometry (UPLC–MS/MS). The detection was performed using an ACQUITY UPLC/Xevo TQD System.

SH-SY5Y cells = assay: Cytotoxicity by propidium iodide staining; type: cell-based; conditions: 100 μM, 24 h
Experimental: Cytotoxicity was evaluated in the human neuroblastoma SH-SY5Y cell line (ATCC number: CRL-2266). Cells were cultured in minimum essential medium/Ham’s-F12 (1:1, v/v) medium, supplemented with non-essential amino acids, 10% fetal bovine serum, 1 mM glutamine, and 50 μg/mL gentamycin (all reagents from Gibco, Invitrogen). For experiments, the cells were seeded at 3 × 10^5 cells/mL (100 μL/well) in 96-well plates (Nunc). After 24 h, the testing compounds were added concentrated to triplicate wells to obtain the final different concentrations up to 100 μM. Compounds were incubated for further 24 h. At termination, cytotoxicity was analyzed by the propidium iodide (PI) fluorescence stain assay. All compounds were tested in three independent experiments using different cell passages. The PI assay measures cell death. […]. The percentage of cell death induced by the treatments was calculated from the fluorescence of treated cells (Ft) relative to that of control cells (Fmin) and cells incubated with Triton X100 (Fmax) as the 0 and 100% cell death, respectively [% = ((Ft – Fmin)/(Fmax – Fmin)) × 100].

human COX-2 (hCOX-2) = target: T1, human COX-2 (hCOX-2) (Homo sapiens, UniProt P35354); assay: Inhibition of hCOX-2 (Eurofins, catalogue reference 4186); type: biochemical; conditions: for IC50: performed by Eurofins
T1 sequence (P35354 18-604): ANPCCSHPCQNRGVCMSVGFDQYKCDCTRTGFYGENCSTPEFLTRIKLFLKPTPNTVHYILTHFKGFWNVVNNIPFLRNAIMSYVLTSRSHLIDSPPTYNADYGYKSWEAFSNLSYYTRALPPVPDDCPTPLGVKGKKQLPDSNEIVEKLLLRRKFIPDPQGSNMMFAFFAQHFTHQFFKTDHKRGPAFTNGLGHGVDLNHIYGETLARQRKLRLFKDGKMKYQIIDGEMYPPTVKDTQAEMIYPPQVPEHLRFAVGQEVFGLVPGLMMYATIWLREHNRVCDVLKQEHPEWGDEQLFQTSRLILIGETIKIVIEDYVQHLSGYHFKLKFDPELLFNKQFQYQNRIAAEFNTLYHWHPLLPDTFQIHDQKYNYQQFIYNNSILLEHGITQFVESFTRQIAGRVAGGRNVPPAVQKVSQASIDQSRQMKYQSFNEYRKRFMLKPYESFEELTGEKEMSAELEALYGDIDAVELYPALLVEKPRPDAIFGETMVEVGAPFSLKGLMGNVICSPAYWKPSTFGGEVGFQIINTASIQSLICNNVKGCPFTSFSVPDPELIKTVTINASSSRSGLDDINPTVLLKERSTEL

Row | microsomal stability, percentage of remaining compound (human) (Microsomal stability [1]) | microsomal stability, percentage of remaining compound (rat) (Microsomal stability [2]) | Papp A→B at 2 h, 10 µM (Caco-2 cell permeability) | Papp B→A at 2 h, 10 µM (Caco-2 cell permeability) | efflux ratio at 2 h, 10 µM (Caco-2 cell permeability) | IC50 (human COX-2 (hCOX-2)) | SMILES | cytotoxicity at the highest concentration tested (SH-SY5Y cells) | inhibition of hCOX-2 (selectivity) (human COX-2 (hCOX-2))
1 | 70% | 2% | 1 ×10⁻⁶ cm/s | 12.4 ×10⁻⁶ cm/s | 12.4 | > 10 µM | CC12CC3CC(NC(=O)N[C@H]4CC[C@H](Oc5ccc(C(=O)O)cc5)CC4)(CC(C1)c1ccccc13)C2 [Compound 20, 4-[((1r,4r)-4-(3-(9-Methyl-5,6,8,9,10,11-Hexahydro-7H-5,9:7,11-dimethanobenzo[9]annulen-7-yl)ureido)cyclohexyl)oxy]benzoic Acid] | None of the compounds showed to be cytotoxic | Neither 20 nor the halogenated analogues 22 and 23 significantly inhibited
2 | 77% | 60% | 0.09 ×10⁻⁶ cm/s | 21.9 ×10⁻⁶ cm/s | 244 | > 10 µM | O=C(NC12CC3CC(F)(CC(C1)c1ccccc13)C2)N[C@H]1CC[C@H](Oc2ccc(C(=O)O)cc2)CC1 [Compound 23, 4-[((1r,4r)-4-(3-(9-Fluoro-5,6,8,9,10,11-hexahydro-7H-5,9:7,11-dimethanobenzo[9]annulen-7-yl)ureido)cyclohexyl)oxy]benzoic Acid] | None of the compounds showed to be cytotoxic | Neither 20 nor the halogenated analogues 22 and 23 significantly inhibited

Row | SMILES | microsomal stability, percentage of remaining compound (human) (Microsomal stability [1]) | microsomal stability, percentage of remaining compound (rat) (Microsomal stability [2]) | Papp A→B at 2 h, 10 µM (Caco-2 cell permeability) | Papp B→A at 2 h, 10 µM (Caco-2 cell permeability) | efflux ratio at 2 h, 10 µM (Caco-2 cell permeability) | IC50 (human COX-2 (hCOX-2)) | cytotoxicity at the highest concentration tested (SH-SY5Y cells) | inhibition of hCOX-2 (selectivity) (human COX-2 (hCOX-2))
3 | O=C(NC12CC3CC(Cl)(CC(C1)c1ccccc13)C2)N[C@H]1CC[C@H](Oc2ccc(C(=O)O)cc2)CC1 [Compound 22, 4-[((1r,4r)-4-(3-(9-Chloro-5,6,8,9,10,11-hexahydro-7H-5,9:7,11-dimethanobenzo[9]annulen-7-yl)ureido)cyclohexyl)oxy]benzoic Acid] | 89% | 52% | 2.15 ×10⁻⁶ cm/s | 4.66 ×10⁻⁶ cm/s |  | > 10 µM | None of the compounds showed to be cytotoxic | 
